This is an account of results in US5952390A, “10-substituted 1,8-dihydroxy-9(10H) anthracenone pharmaceuticals” (Teva Pharmaceutical Industries Ltd., priority 1998, dated 1999).

pIC50: −log10 of the molar value. Read-outs that look alike come from different tables or passages of the source. Some results are limits rather than exact numbers.

The term pIC50 denotes the negative decadic logarithm of the IC50, by convention in mol/L. Usually inhibition stands for how much of the control response was suppressed.

In data set [1] the test system is HaCaT cells. Put plainly: HaCaT keratinocyte proliferation assay. In kind it is cell-based. As to conditions: Homo sapiens. From the text: (§1) The biological assay methods were as follows: LDH release as described in Muller K, Huang H-S, Wiegrebe W, J. Med. Chem. 39, 3132-3138 (1996); bovine PMNL 5-LO assay as described in Muller K, Gurster D, Piwek S, Wiegrebe W, J. Med. Chem. 36, 4099-4107 (1993); and degradation of 2-deoxy-D-ribose as described in Muller K, Gurster D, Biochem. Pharmacol. 46, 1695-1704 (1993). HaCaT keratinocyte proliferation assay was generally described in Muller K, Leukel P, Zeireis K, Gawlik I, J. Med. Chem 37, 1660-1669 (1994). Specifically, the HaCaT cells were incubated with the test compounds (2 microM) for four hours at 37° C. Extracellular LDH activity was measured using the UV method with pyruvate and NADH and is expressly in mU/ml. Appropriate controls with the vehicle were performed (P<0.01; N=3, SD<10%).

Another data set has as its target T1, 5-LO in bovine PMNL (Bos taurus, UniProt F1MQ78).
T1 construct: endogenous in cells; host or cells: polymorphonuclear leukocytes isolated from bovine blood
T1 sequence (F1MQ78 1-674): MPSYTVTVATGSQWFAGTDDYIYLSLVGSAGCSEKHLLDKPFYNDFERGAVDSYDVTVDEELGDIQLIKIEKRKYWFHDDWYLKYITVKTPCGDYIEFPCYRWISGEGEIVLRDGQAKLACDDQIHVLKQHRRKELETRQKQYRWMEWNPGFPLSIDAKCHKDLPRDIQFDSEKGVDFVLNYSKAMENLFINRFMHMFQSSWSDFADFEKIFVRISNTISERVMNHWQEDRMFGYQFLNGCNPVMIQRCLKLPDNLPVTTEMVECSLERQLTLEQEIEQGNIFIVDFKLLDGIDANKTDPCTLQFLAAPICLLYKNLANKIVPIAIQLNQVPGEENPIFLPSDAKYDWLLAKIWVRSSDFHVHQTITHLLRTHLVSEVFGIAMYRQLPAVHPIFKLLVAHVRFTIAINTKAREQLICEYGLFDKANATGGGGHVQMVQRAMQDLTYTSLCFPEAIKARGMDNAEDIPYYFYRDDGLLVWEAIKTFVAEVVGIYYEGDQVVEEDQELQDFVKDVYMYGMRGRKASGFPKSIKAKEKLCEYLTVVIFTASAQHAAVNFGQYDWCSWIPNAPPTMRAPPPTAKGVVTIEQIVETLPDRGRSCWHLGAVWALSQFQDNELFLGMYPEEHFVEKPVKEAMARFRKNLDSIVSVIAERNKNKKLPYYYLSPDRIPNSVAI
Nature of the data set: Bovine PMNL 5-lipoxygenase assay (inhibition of 5-HETE and LTB4 biosynthesis). Format: cell-based.

Data set [2] is described as follows: Degradation of 2-deoxy-D-ribose (hydroxyl radical formation). The procedure: This assay followed generally the procedures of Gutteridge, J. M. C., "Reactivity of Hydroxyl and Hydroxyl-Like Radicals Discriminated by Release of Thiobarbituric Acid-Reactive Material from Deoxy Sugars, Nucleosides and Benzoate", Biochem. J., 224, 761-767 (1984) and of Laughton, M. J. et al., "Antioxidant and Prooxidant Actions of the Plant Phenolics Quercetin, Gossypol and Myricetin", Biochem. Pharmacol., 38, 2859-2865 (1989). The following reagents were added to glass tubes in the order and at the final concentrations stated. 0.3 ml KH2 PO4 -KOH buffer, pH 7.4 (30 mM), 0.2 ml H2 O bidist., 0.2 ml 2-deoxy-D-ribose (2 mM), 0.2 ml FeCl3 .cndot.6 H2 O (0.1 mM), 0.1 ml anthracenone derivative (75 μM). Stock solutions of the compounds were made up fresh before use. Appropriate blanks and controls with the vehicle (acetonitrile) were conducted. The final reaction volumes were standardized to 1.0 ml. The reaction mixtures were incubated for 2 h at 37° C. in a shaking water bath. 1.0 ml of 2.8% (w/v) trichloroacetic acid and 1.0 ml of 1% (w/v in 0.05 N NaOH) 2-thiobarbituric acid (TBA) were added, and the samples were heated at 100° C. for 15 min and then cooled in an ice bath (5 min). Then 2.0 ml of the reaction mixtures were treated with 0.05 ml of 36% (w/v) HCl and 2.0 ml of 1-butanol and the mixtures were vigorously shaken in a vortex mixer (Heidolph) for 15 s. The organic layer was separated by centrifugation at 3000 rpm (15 min) and the absorbance at 532 nm was measured against butanol. […]
The biological assay methods were as follows: LDH release as described in Muller K, Huang H-S, Wiegrebe W, J. Med. Chem. 39, 3132-3138 (1996); bovine PMNL 5-LO assay as described in Muller K, Gurster D, Piwek S, Wiegrebe W, J. Med. Chem. 36, 4099-4107 (1993); and degradation of 2-deoxy-D-ribose as described in Muller K, Gurster D, Biochem. Pharmacol. 46, 1695-1704 (1993). […] Extracellular LDH activity was measured using the UV method with pyruvate and NADH and is expressly in mU/ml. […]

Data set [3] has as its system HaCaT cells. Put plainly: LDH release in HaCaT cells. Format: cell-based.
Excerpt: as §1
Geisel J.; Mahrle, G. "Lactate dehydrogenase release as an indicator of dithranol-induced membrane injury in cultured human keratinocytes", Arch. Dermatol. Res., 282, 325-329 (1990)). Cytotoxicity against cell cultures by the potent cell growth inhibitors was assessed by the activity of lactate dehydrogenase (LDH) activity release into the culture medium. The release of LDH is commonly used as an indicator of plasma membrane damage.

The subject of another data set is psoriasis. Conditions: in vivo; cited from earlier work.
The conditions of data set [4]: octanol-water; cited from earlier work.

As to `CC(CCC(=O)C1c2cccc(O)c2C(=O)c2c(O)cccc21)c1ccccc1` (racemic) [Compound Iw, (R,S)-1,8-dihydroxy-10-(1-oxo-4-phenylpentyl)-9(10H)-anthracenone], the negative logarithm of the IC50 (pIC50) with HaCaT cells [1] (Table V, footnotes same as in Example 8, read-out: AA IC50 (antiproliferative activity)) is 6.10; against 5-LO in bovine PMNL (Table V, bovine PMNL), 6.52. The “DD(OH), deoxyribose degradation” value in data set [2] (Table V, footnotes same as in Example 8) is listed as < 0.3 μmol of malondialdehyde/mmol o. Also, the LDH release in the data set with HaCaT cells [3] (Table V, 2 μM test compound (Example 8)) came to 171 mU.

On to `O=C1c2ccccc2Cc2cccc(O)c21` [1-hydroxy-9(10H)-anthracenone], for which, in the data set on psoriasis, the “antipsoriatic efficacy, in words” value is “effective in the treatment of psoriasis”.

`Cc1ccc(CC(=O)C2c3cccc(O)c3C(=O)c3c(O)cccc32)cc1` [Compound Iv, 1,8-dihydroxy-10-[2-(4-methylphenyl)-1-oxoethyl]-9(10H)-anthracenone]: the pIC50 was 6.15 with HaCaT cells [1] (Table IV, N = 3, P < 0.01, read-out: AA IC50 (antiproliferative activity)) and 6.22 at 5-LO in bovine PMNL. In addition, in data set [2] (Table IV, released by 75 μm test compound (so in the source)), the “DD(OH), deoxyribose degradation” value was < 0.3 μmol of malondialdehyde/mmol o. Besides, the “LDH release versus vehicle control, in words” value in the data set on HaCaT cells [3] (2 microM, 37° C., four hours) is “not significantly different as compared to vehicle controls”. Moreover, in the data set with HaCaT cells [3] (Table IV, 2 μM test compound, N = 3, SD < 10%), the LDH release stood at 145 mU.

With `O=C1c2c(O)cccc2C(C(=O)CCCc2ccccc2)c2cccc(O)c21` [Ip, 1,8-Dihydroxy-10-(1-oxo-4-phenylbutyl)-9(10H)-anthracenone], the “effectiveness as inhibitor of lipoxygenase relative to anthralin” value on 5-LO in bovine PMNL (compared with anthralin) is recorded as roughly 100 times.

In the case of `CC(Cc1ccc(O)c(O)c1)C(C)Cc1ccc(O)c(O)c1` (centres unmarked) [Nordihydroguaiaretic acid (NDGA), Nordihydroguaiaretic acid], the pIC50 on 5-LO in bovine PMNL was 6.40.

Consider `c1ccc2ccccc2c1` [naphthalene], for which the “log P (known values of calibration compounds)” value in data set [4] is 3.44.

Consider `CC(=O)Oc1cccc2cc3cccc(OC(C)=O)c3c(OC(C)=O)c12` [triacetoxyanthracene], for which, at 5-LO in bovine PMNL (at 30 μM, bovine PMNL), the “inhibition at 30 µM” value turned out to be 15%.
